Counter-ions that a name gives are not always drawn.
Tests used:
[1] = biological target: T1, rat histamine H3 receptors (Rattus norvegicus, UniProt Q9QYN8); experiment: Rat H3 binding (3H-N-methylhistamine displacement, rat frontal brain membranes); conditions: radioligand 1 nM 3H-N-methylhistamine, 1 hour incubation
T1 construct: Frozen rat frontal brain or frozen human post-mortem frontal brain is homogenized; from tissue; host or cells: rat frontal brain membranes
Experimental: The in vitro affinity of the compounds in the present invention at the rat or human histamine H3 receptors can be determined according to the following procedure. Frozen rat frontal brain or frozen human post-mortem frontal brain is homogenized in 20 volumes of cold 50 mM Tris HCl containing 2 mM MgCl2 (pH to 7.4 at 4 degrees C.). The homogenate is then centrifuged at 45,000 G for 10 minutes. The supernatant is decanted and the membrane pellet re-suspended by Polytron in cold 50 mM Tris HCl containing 2 mM MgCl2 (pH to 7.4 at 4 degrees C.) and centrifuged again. The final pellet is re-suspended in 50 mM Tris HCl containing 2 mM MgCl2 (pH to 7.4 at 25 degrees C.) at a concentration of 12 mg/mL. Dilutions of compounds are made in 10% DMSO/50 mM Tris buffer (pH 7.4) (at 10×final concentration, so that the final DMSO concentration is 1%). Incubations are initiated by the addition of membranes (200 microliters) to 96 well V-bottom polypropylene plates containing 25 microliters of drug dilutions and 25 microliters of radioligand (1 nM final concentration ^3H—N-methylhistamine). After a 1 hour incubation, assay samples are rapidly filtered through Whatman GF/B filters and rinsed with ice-cold 50 mM Tris buffer (pH 7.4) using a Skatron cell harvester. Radioactivity is quantified using a BetaPlate scintillation counter.

T1 sequence (Q9QYN8 whole entry): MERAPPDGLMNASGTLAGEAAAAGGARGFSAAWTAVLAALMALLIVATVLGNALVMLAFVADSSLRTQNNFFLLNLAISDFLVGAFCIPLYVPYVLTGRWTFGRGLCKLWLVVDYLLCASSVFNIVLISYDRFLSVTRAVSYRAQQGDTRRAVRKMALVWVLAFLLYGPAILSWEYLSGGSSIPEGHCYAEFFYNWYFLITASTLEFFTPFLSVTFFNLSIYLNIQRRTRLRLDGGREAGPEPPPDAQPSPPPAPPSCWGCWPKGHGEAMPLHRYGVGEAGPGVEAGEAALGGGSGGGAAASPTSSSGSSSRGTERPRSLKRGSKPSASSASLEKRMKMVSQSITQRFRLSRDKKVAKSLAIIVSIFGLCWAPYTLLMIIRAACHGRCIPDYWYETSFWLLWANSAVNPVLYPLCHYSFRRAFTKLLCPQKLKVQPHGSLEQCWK

| Structure (SMILES) | Ki [1] [nM] | melting point [°C] |
| --- | --- | --- |
| C[C@H](c1ccc(-c2ccc(C3CCN(C)CC3)cc2)cc1)N1CCCC1 [Example 77, (R)-1-Methyl-4-[4′-(1-Pyrrolidin-1-ylethyl)-biphenyl-4-yl]-piperidine] | 24.3 |  |
| COc1ncc(-c2ccc(-c3ccc([C@@H](C)N4CCCC4)cc3)cc2)c(OC)n1 [Example 5, (R)-2,4-Dimethoxy-5-[4′-(1-pyrrolidin-1-ylethyl)-biphenyl-4-yl]-pyrimidine] | 45 |  |
| Cc1cc(C2CCCN2C)ccc1-c1ccc(CNCc2ccc(Cl)cc2)cc1 (stereo not drawn) [Example 96, (4-Chlorobenzyl)-[2′-methyl-4′-(1-methylpyrrolidin-2-yl)-biphenyl-4-ylmethyl]-amine] | 14.7 |  |
| CC(c1ccc(-c2ccc(-c3cnc(O)nc3)cc2)cc1)N1CCCC1 (stereo not drawn) [Example 90, 5-[4′-(1-Pyrrolidin-1-ylethyl)-biphenyl-4-yl]-pyrimidin-2-ol] | 44 |  |
| CC(c1ccc(-c2ccc(-c3cncnc3)cc2F)cc1)N1CCCC1 (stereo not drawn) [Example 94, 5-[2-Fluoro-4′-(1-pyrrolidin-1-ylethyl)-biphenyl-4-yl]-pyrimidine] | 23 |  |
| CC(c1ccc(-c2ccc(C3CCNCC3)cc2)cc1)N1CCCC1 (racemic) [Example 74, (±)-4-[4′-(1-Pyrrolidin-1-yl-ethyl)-biphenyl-4-yl]-piperidine] | 10 |  |
| COc1ncc(-c2ccc(-c3ccc(C(C)N4CCCC4)cc3)cc2)cn1 (stereo not drawn) [Example 92, 2-Methoxy-5-[4′-(1-pyrrolidin-1-ylethyl)-biphenyl-4-yl]-pyrimidine] | 42 |  |
| CC(c1ccc(-c2ccc(-c3ccccc3C(=O)N(C(C)C)C(C)C)cc2)cc1)N1CCCC1 (stereo not drawn) [Example 28, 4″-(1-Pyrrolidin-1-ylethyl)-[1,1′;4′,1″]terphenyl-2-carboxylic acid diisopropylamide] | 13.6 |  |
| CC(c1ccc(-c2ccc(-c3cncnc3)cc2)cc1)N1CCCC1 (racemic) [Example 6, (±)-5-[4′-(1-Pyrrolidin-1-ylethyl)-biphenyl-4-yl]-pyrimidine] | 61.8 |  |
| CC(c1ccc(-c2ccc(-c3cncnc3)cc2)cc1)N1CCCC1 (stereo not drawn) [Example 20, 5-[4′-(1-Pyrrolidin-1-ylethyl)-biphenyl-4-yl]-pyrimidine] | 25.2 |  |
| CCN1CCC(c2ccc(-c3ccc([C@@H](C)N4CCCC4)cc3)cc2)CC1 [Example 78, (R)-1-Ethyl-4-[4′-(1-pyrrolidin-1-ylethyl)-biphenyl-4-yl]-piperidine] | 21.3 |  |
| Cc1cc(C2CCCN2C)ccc1-c1ccc(CN2CCCCC2)cc1 (stereo not drawn) [Example 79, 1-[2′-Methyl-4′-(1-methylpyrrolidin-2-yl)-biphenyl-4-ylmethyl]-piperidine] | 13.9 |  |
| CC(c1ccc(-c2ccc(-c3cncnc3)cc2F)cc1)N1CCCC1 (stereo not drawn) (as salt: HCl) [Example 94, 5-[2-Fluoro-4′-(1-pyrrolidin-1-ylethyl)-biphenyl-4-yl]-pyrimidine] |  | 179.9 to 181.3 |
| CC(c1ccc(-c2ccc(-c3ccncc3)cc2)cc1)N(C)C (stereo not drawn) [Example 39, Dimethyl-[1-(4′-pyridin-4-ylbiphenyl-4-yl)-ethyl]-amine] | > 140 |  |
| CC(c1ccc(-c2ccc(C3CCNCC3)cc2)cc1)N1CCCC1 (racemic) [Example 72, (R)-(±)-4-[4′-(1-Pyrrolidin-1-ylethyl)-biphenyl-4-yl]-piperidine] | 3.5 |  |
| CC(c1ccc(-c2ccc(-c3ccc(S(C)(=O)=O)cc3)cc2)cc1)N1CCCC1 (stereo not drawn) [Example 35, 1-[1-(4-Methanesulfonyl-[1,1′;4′,1″]terphenyl-4″-yl)-ethyl]-pyrrolidine] | 22.7 |  |
| CC(c1ccc(-c2ccc(-c3ccncc3)cc2)cc1)N1CCCC1 (racemic) [Example 1, (R)-(±)-4-[4′-(1-Pyrrolidin-1-ylethyl)-biphenyl-4-yl]-pyridine] | 39.4 |  |
| C[C@@H](c1ccc(-c2ccc(-c3ccncc3)cc2)cc1)N1CCCC1 [Example 2, (S)-(−)-4-[4′-(1-Pyrrolidin-1-ylethyl)-biphenyl-4-yl]-pyridine] | 137 |  |
| CC(c1ccc(-c2ccc(-c3ccncc3)cc2)cc1)N1CCCC1 (stereo not drawn) [Example 24, 4-[4′-(1-Pyrrolidin-1-ylethyl)-biphenyl-4-yl]-pyridine] | 52 |  |
| Cc1cc(C2CCCN2C)ccc1-c1ccc(CNCc2ccc(Cl)cc2)cc1 (stereo not drawn) (as salt: hydrochloride) [Example 96, (4-Chlorobenzyl)-[2′-methyl-4′-(1-methylpyrrolidin-2-yl)-biphenyl-4-ylmethyl]-amine] |  | 238.2 to 239.3 |
| CC(c1ccc(-c2ccc(-c3cccnc3)cc2)cc1)N1CCCC1 (stereo not drawn) [Example 9, 3-[4′-(1-Pyrrolidin-1-ylethyl)-biphenyl-4-yl]-pyridine] | 50 |  |
| CC(c1ccc(-c2ccc(-c3cncnc3)cc2)cc1)N1CCCC1 (racemic) [Example 7, (R)-(±)-5-[4′-(1-Pyrrolidin-1-ylethyl)-biphenyl-4-yl]-pyrimidine] | 22.7 |  |
| C[C@H](c1ccc(-c2ccc(-c3cccnc3)cc2)cc1)N1CCCC1 [Example 4] | 35.8 |  |
| Cc1cc(C2CCCN2C)ccc1-c1ccc(CN2CCCCC2)cc1 (stereo not drawn) (as salt: HCl) [Example 79, 1-[2′-Methyl-4′-(1-methylpyrrolidin-2-yl)-biphenyl-4-ylmethyl]-piperidine] |  | 237.1 to 240 |
| CC(c1ccc(-c2ccc(-c3cnc(N)nc3)cc2)cc1)N1CCCC1 (stereo not drawn) [Example 93, 5-[4′-(1-Pyrrolidin-1-ylethyl)-biphenyl-4-yl]-pyrimidin-2-ylamine] | 105 |  |
| C[C@@H](c1ccc(-c2ccc(C3CCNCC3)cc2)cc1)N1CCCC1 [Example 73, (S)-(−)4-[4′-(1-Pyrrolidin-1-ylethyl)-biphenyl-4-yl]-piperidine] | 72.6 |  |
| CC(c1ccc(-c2ccc(-c3cnc(Cl)nc3)cc2)cc1)N1CCCC1 (stereo not drawn) [Example 91, 2-Chloro-5-[4′-(1-pyrrolidin-1-ylethyl)-biphenyl-4-yl]-pyrimidine] | 38 |  |

Source: US20050245543A1, “Histamine-3 receptor antagonists” (Pfizer Inc, priority 2004, published 2005)
